{"source": "paper PMC11407758", "about": "“Integrated stress response (ISR) activation and apoptosis through HRI kinase by PG3 and other p53 pathway-restoring cancer therapeutics” (Oncotarget, 2024)", "key": {"[1]": {"test_system": "MRC5 (human lung fibroblast cell with wild-type p53)", "assay": "Cell viability assay (CellTiterGlo), MRC5 normal cells", "format": "cell-based", "settings": "72 h, read-out: IC50 values, MRC5 (WT)", "experimental": "(§1) Figure 1 PG3 inhibits cell proliferation and growth in a p53-indepent manner. (A–E) Cell viability assay, dose response curves and IC50 value measurements in a panel of cancer cell lines and normal cells. Cells were treated with different concentrations of PG3, PG3-Oc (Oc), obatoclax (Ob), prodigiosin (P) or DMSO for 72 h. Luciferase activity was imaged by the IVIS Imaging System after treatment. Cell viability data were normalized to those of DMSO treatment control in each cell line and data analyses were performed using PRISM4 software. IC50 data are expressed as the mean ±SD (normal; n = 3).\nas §1, with “2 p53-dependent inhibition of” for “1 PG3 inhibits”, “is only observed at specific concentrations. (A–J)” for “and growth in a p53-indepent manner. (A–E)”, “ZMC1, CP-313908, APR-246, Ellipticine, Nutalin-3a” for “PG3, PG3-Oc (Oc), obatoclax (Ob), prodigiosin (P)”\n(§2) Cells were seeded in 96-well plates (6 × 10^3 cells/well). Cells were treated with different concentrations of compounds or dimethyl sulfoxide (DMSO) as a control for 72 hours. The cell viability was assessed by CellTiterGlo bioluminescent cell viability assay (Promega), following the manufacturer’s protocol. Bioluminescence imaging was measured using the IVIS imager. The percentage of cell viability (mean ± SEM) at each dose was calculated against the respective DMSO control. The IC50 values were determined from the sigmoidal dose-response curves using GraphPad Prism."}, "HT29 (R273H)": {"test_system": "HT29 (R273H)", "assay": "Cell viability assay (CellTiterGlo), HT29", "format": "cell-based, human", "experimental": "as §1\nas §1, with “2 p53-dependent inhibition of” for “1 PG3 inhibits”, “is only observed at specific concentrations. (A–J)” for “and growth in a p53-indepent manner. (A–E)”, “ZMC1, CP-313908, APR-246, Ellipticine, Nutalin-3a” for “PG3, PG3-Oc (Oc), obatoclax (Ob), prodigiosin (P)”\nas §2"}, "HCT116 (R175H)": {"test_system": "HCT116 (R175H)", "assay": "Cell viability assay (CellTiterGlo), HCT116 R175H", "format": "cell-based, human", "experimental": "as §1\nas §1, with “2 p53-dependent inhibition of” for “1 PG3 inhibits”, “is only observed at specific concentrations. (A–J)” for “and growth in a p53-indepent manner. (A–E)”, “ZMC1, CP-313908, APR-246, Ellipticine, Nutalin-3a” for “PG3, PG3-Oc (Oc), obatoclax (Ob), prodigiosin (P)”\nas §2"}, "ATF4": {"test_system": "ATF4", "assay": "Western blot, ATF4 induction", "format": "cell-based, human", "settings": "24 h", "experimental": "(§3) Figure 4 Activation of ATF4 and up-regulation of typical p53 target genes. (A–E) Western blot analysis of p53 protein levels and upregulation of ATF4, PUMA, DR5 and p21. Cells were treated for 24 h with indicated compounds, concentrations and cell lines. Abbreviations: S.E.: Short exposure; L.E.: Long exposure.\n(§4) After treatment, protein lysates were collected for Western blot analysis. A total of 15 μg of protein was used for SDS-PAGE. After primary and secondary antibody incubations, the signal was detected by a chemiluminescence detection kit, imaged by Syngene (Imgen Technologies). Antibodies for NAG-1 (GDF15) and P53 were from Santa Cruz Biotechnology; for caspase 8, cleaved caspase 8, caspase 9, caspase 3, cleavage PARP, eIF2α, p-eIF2α (Ser51), CHOP, ATF4, DR5, and PUMA were from Cell Signaling Technology. Noxa and p21 were from Calbiochem. Ran was from BD Biosciences."}, "[2]": {"test_system": "HFF-1 (human foreskin fibroblast cell with wild-type p53)", "assay": "Cell viability assay (CellTiterGlo), HFF-1 normal cells", "format": "cell-based", "settings": "72 h, CellTiterGlo, normal cells; read-out: IC50 values, HFF-l (WT)", "experimental": "as §1\nas §1, with “2 p53-dependent inhibition of” for “1 PG3 inhibits”, “is only observed at specific concentrations. (A–J)” for “and growth in a p53-indepent manner. (A–E)”, “ZMC1, CP-313908, APR-246, Ellipticine, Nutalin-3a” for “PG3, PG3-Oc (Oc), obatoclax (Ob), prodigiosin (P)”\nas §2"}, "PUMA": {"test_system": "PUMA", "assay": "Western blot, PUMA induction", "format": "cell-based, human", "experimental": "as §3, §4"}, "[3]": {"test_system": "SW480 cells carrying a p53-responsive luciferase reporter", "assay": "p53-responsive reporter assay", "format": "cell-based, human", "settings": "30 μM, 15 hour time point", "experimental": "SW480 cells carrying a p53-responsive luciferase reporter were used for assay of functional restoration of mutant p53. Cells were seeded in 96-well plates (5 × 10^4 cells/well) and were treated with compounds indicated for 6 and 15 h, respectively. Then, D-luciferin was added to each well with final concentration 100 μg/mL, and cells were imaged by using an IVIS Imaging System to detect luciferase activity.\np53-mutant SW480 human colon cancer cells, stably expressing a p53-responsive luciferase reporter, were used to assay functional restoration p53 pathway-dependent transcription in mutant p53-expressing tumor cells. Cells were seeded in 96-well plates (5 × 10^4 cells/well) and were treated with small-molecule compounds for 6 and 15 h, respectively. Then, D-luciferin was added to each well at a final concentration of 100 μg/mL, and cells were imaged by using an IVIS Imaging System (Xenogen) to detect luciferase activity."}, "p53 protein": {"test_system": "p53 protein", "assay": "Western blot, p53 protein levels", "format": "cell-based, human", "experimental": "Cells were treated for 24 h with indicated compounds, concentrations and cell lines. Abbreviations: S.E.: Short exposure; L.E.: Long exposure.\nas §4"}, "p21": {"test_system": "p21", "assay": "Western blot, p21 induction", "format": "cell-based, human", "experimental": "as §3, §4"}, "DR5": {"test_system": "DR5", "assay": "Western blot, DR5 induction", "format": "cell-based, human", "experimental": "as §3, §4"}, "HRI": {"test_system": "HRI", "parameters": "method as in PMID 22827572", "settings": "cited from earlier work"}, "[4]": {"test_system": "GCN2, PKR, eIF2α, ATF4, CHOP in HT29 cells", "assay": "Western blot, ISR kinases / eIF2α / ATF4 / CHOP", "format": "cell-based, human", "experimental": "Figure 7 PG3 induces upregulation of ATF4 through ISR via HRI. (A) HT29 cells were treated with PG3, GSK2606414, TG and ONC201 respectively, or co-treatment with PG3/GSK2606414, PG3/TG, and PG3/ONC201 for 15 h. (B) MEF, MEF^PERK−/− and MEF^GCN2−/− cells were treated with PG3 and ONC201 for 16 hours. (C) HT29 cells were transfected with siControl, siPKR, siHRI and siPKR/siHRI for 24 hours and then treated with PG3 for 16 hours. (D) HCT116 p53^−/− cells were transfected with siControl and siHRI for 24 hours and then treated with PG3 for 16 hours. (E) HCT116 p53^−/− cells were treated with PG3 and ONC201 for indicated times. (F) PANC1-sgCtrl, -sgHRI and -sgPKR cell lines were treated with PG3 and imipridones (ONC201, ONC206 and ONC212) for 16 hours. Western blot was performed using indicated antibodies. (G) Proposed model of PG3-induced cell apoptosis through HRI/ATF4/PUMA axis. Abbreviation: L.E.: Long exposure.\nas §4\n(§5) Supplementary Figure 2: ROS and NO are not responsible for PG3-induced HRI activation. (A, B) cells were pre-treated\n(§6) with ZnPP, L-NMMA, SA and NAC for 2 hours respectively, and then ONC201 or PG3 was added to the medium for 24 hour treatment.\n(§7) Western blot was performed using indicated antibodies.\n(§8) (1 picture or pasted object on this page, not shown here)"}, "ALAS1, UROD": {"test_system": "ALAS1, UROD", "assay": "Western blot, heme biosynthesis enzymes", "format": "cell-based, human", "experimental": "Figure 8 Inhibition of heme biosynthesis leads to upregulation of ATF4. (A) HT29 cells were treated with SA and ONC201 for 20 hours. Western blotting was performed using the indicated antibodies. (B) HT29 cells were transfected with siCtrl, siHRI, siClpX, siALAS1, siClpX/siALAS1 and siClpX/siALAS1/siHRI for 48 hours. (C) HT29 cells were transfected with siCtrl, siLonP1, siClpP for 24 or 48 hours respectively, and then treated with ONC201 for 24 hours. (D) Proposed model of ONC201-induced cell apoptosis through ClpP/ALAS1/HRI/ATF4 axis. (E, F) Silencing of ClpP in HCT116 p53^−/− and MDA-MB-468 cells and then treated with PG3, PG3-Oc and ONC201. Western blot was performed using indicated antibodies.\nas §4, §5, §6, §7, §8"}}}
{"molecule": "COc1ccc(/C=C/c2nc(NCCCN(C)C)c3ccccc3n2)cc1", "note": "[CP-31398]", "values": [{"measurement": "IC50", "setting": "[1]", "value": 5.92, "unit": "µM"}, {"measurement": "IC50", "setting": "HT29 (R273H); 72 h, CellTiterGlo", "value": 0.647, "unit": "µM"}, {"measurement": "inhibition of cell viability", "setting": "HT29 (R273H); HT29, 0.04 μM", "value": "potently inhibited"}, {"measurement": "fold more potency in HT29 than in HFF-1", "setting": "HT29 (R273H); HT29 vs HFF-1", "value": 12.2, "unit": "fold"}, {"measurement": "fold more potency in HT29 than in MRC5", "setting": "HT29 (R273H); HT29 vs MRC5", "value": 9.1, "unit": "fold"}, {"measurement": "IC50", "setting": "HCT116 (R175H); 72 h, CellTiterGlo", "value": 9.58, "unit": "µM"}, {"measurement": "selective inhibition among HCT116 isogenic cell lines", "setting": "HCT116 (R175H); HCT116-R175H compared to HCT116 (WT) and HCT116 p53–/–, 10 μM", "value": "selective inhibition"}, {"measurement": "upregulation of ATF4", "setting": "ATF4; HT29 and TOV-112D, compared to PG3 and PG3-Oc", "value": "more potently induces upregulation of ATF4"}, {"measurement": "upregulation of ATF4", "setting": "ATF4; three isogenic HCT116 cell lines", "value": "does not upregulate ATF4"}, {"measurement": "IC50", "setting": "[2]", "value": 7.92, "unit": "µM"}, {"measurement": "upregulation of PUMA", "setting": "PUMA; HCT116 (p53 wild-type), 24 h", "value": "induces PUMA expression"}, {"measurement": "upregulation of PUMA", "setting": "PUMA; HCT116 p53-R175H, 24 h", "value": "barely"}, {"measurement": "upregulation of PUMA", "setting": "PUMA; HCT116 p53–/–, 24 h", "value": "barely"}, {"measurement": "upregulation of PUMA", "setting": "PUMA; HT29, 24 h", "value": "induces PUMA expression"}, {"measurement": "upregulation of PUMA", "setting": "PUMA; TOV-112D, 24 h", "value": "barely"}, {"measurement": "p53-responsive reporter activity", "setting": "[3]", "value": "able to activate the reporter"}, {"measurement": "wild-type p53 protein level", "setting": "p53 protein; HCT116, 24 h", "value": "marginal stabilization"}, {"measurement": "endogenous mutant p53 R273H protein level", "setting": "p53 protein; HT29, 24 h", "value": "stabilizes"}, {"measurement": "endogenous mutant p53 R175H protein level", "setting": "p53 protein; TOV-112D, 24 h", "value": "marginally destabilizes"}, {"measurement": "exogenous mutant p53 R175H protein level", "setting": "p53 protein; engineered HCT116-R175H cells, 24 h", "value": "no effects"}, {"measurement": "upregulation of p21", "setting": "p21; HCT116 (p53 wild-type), 24 h", "value": "significantly"}, {"measurement": "upregulation of p21", "setting": "p21; HCT116 p53-R175H, 24 h", "value": "barely"}, {"measurement": "upregulation of p21", "setting": "p21; HCT116 p53–/–, 24 h", "value": "barely"}, {"measurement": "upregulation of p21", "setting": "p21; HT29, 24 h", "value": "significantly"}, {"measurement": "upregulation of p21", "setting": "p21; TOV-112D, 24 h", "value": "upregulates p21 strongly"}, {"measurement": "upregulation of DR5", "setting": "DR5; HCT116 (p53 wild-type), 24 h", "value": "does not upregulate DR5"}, {"measurement": "upregulation of DR5", "setting": "DR5; HCT116 p53-R175H, 24 h", "value": "does not upregulate DR5"}, {"measurement": "upregulation of DR5", "setting": "DR5; HCT116 p53–/–, 24 h", "value": "does not upregulate DR5"}, {"measurement": "upregulation of DR5", "setting": "DR5; HT29, 24 h", "value": "mildly upregulates DR5"}, {"measurement": "upregulation of DR5", "setting": "DR5; TOV-112D, 24 h", "value": "upregulates DR5 in a comparable manner to PG3 and PG3-Oc"}]}
{"molecule": "Cn1cc(-c2ccc3c(c2)CCN3C(=O)Cc2cccc(C(F)(F)F)c2)c2c(N)ncnc21", "note": "[GSK2606414, 7-methyl-5-(1-{[3-(trifluoromethyl)phenyl]acetyl}-2,3-dihydro-1H-indol-5-yl)-7H-pyrrolo[2,3-d]pyrimidin-4-amine]", "values": [{"measurement": "IC50", "setting": "HRI", "value": 0.42, "unit": "µM"}, {"measurement": "effect on ONC201-induced upregulation of ATF4 and CHOP", "setting": "[4]; HT29, co-treatment with ONC201", "value": "significantly attenuates"}, {"measurement": "effect on PG3-induced eIF2α phosphorylation, ATF4 and CHOP upregulation", "setting": "[4]; HT29, co-treatment with PG3, 15 h", "value": "does not block"}, {"measurement": "effect on TG-induced upregulation of ATF4 and CHOP", "setting": "[4]; HT29, co-treatment with thapsigargin", "value": "abolishes"}]}
{"molecule": "Cc1ccccc1CN1C(=O)C2=C(CCN(Cc3ccccc3)C2)N2CCN=C12", "note": "[ONC201]", "values": [{"measurement": "ALAS1 protein level", "setting": "ALAS1, UROD", "value": "potent downregulation and inhibition of ALAS1"}, {"measurement": "UROD protein levels", "setting": "ALAS1, UROD", "value": "do not have any effects"}, {"measurement": "phosphorylation of GCN2 and PKR", "setting": "[4]", "value": "does not increase phosphorylation"}]}
